Assay: in vitro
Details: human, hela cells, % viability

| SMILES | viability at 28.5 h, 10 µM [%] | viability at 28.5 h, 10 µM (bulk resorufin, single well) [%] |
| --- | --- | --- |
| CC1=CC(C)(NC(N)=O)NC(=S)N1 (centres unmarked) [CBK020817] | 112 | – |
| Cc1c(-c2csc(CC#N)n2)sc2ccccc12 [CBK020828] | 65.6 | – |
| O=C(O)COc1ccccc1/C=N\N1CCN(Cc2ccccc2Cl)CC1 [CBK020891] | 96.7 | – |
| CC(C)NC(=O)Nc1ccccc1-c1ncn(C)n1 [CBK020922] | 95.6 | – |
| FC(F)(F)c1cc(/C=C/c2cccs2)n[nH]1 [CBK020924] | 92.1 | – |
| CCN(CC)c1ccc(SC)n1C [CBK020929] | 104 | – |
| N/C(=N/O)c1ccc(-n2cncn2)nc1 [CBK020936] | 104 | – |
| CNCCc1n[nH]c(N)n1 [CBK020959] | 89.4 | – |
| CC1=CC(C)C(COC(N)=O)(COC(N)=O)C(C)C1 (centres unmarked) [CBK020974] | – | 93.7 |
| O=C(c1ccccc1)n1cc(-c2ccccn2)c(N2CCOCC2)n1 [CBK021010] | 100 | – |
| Cc1nn(C2CCCO2)c(=O)nc1N (centres unmarked) [CBK021028] | 101 | – |
| N/C(=N/c1ccccn1)C(F)(F)F [CBK021049] | 90.1 | – |
| Cn1c(=O)n(C)c2cc(NC(=O)C(F)(F)F)ccc21 [CBK021127] | 80.9 | – |
| O=C(O)C(Cc1ccccc1)n1cnnn1 (centres unmarked) [CBK021162] | 109 | – |
| O=C1N(Cc2ccc(Br)cc2)CCc2cncn21 [CBK021187] | 79.7 | – |
| COc1cc(OC)c(CN(C)CCN(C)C)cc1Br [CBK021255] | 88.6 | – |
| O=C(Cc1ccccc1)N/N=C/c1nnco1 [CBK021274] | 121 | – |
| CC(C)(C)S(=O)(=O)CC(N)=S [CBK021304] | 91.1 | – |
| CN(CCc1ccccn1)Cc1cc(Br)cs1 [CBK021314] | 92.8 | – |
| COC(=O)c1ccccc1S(=O)(=O)Nc1nnn[nH]1 [CBK021321] | 97.8 | – |
| CC1CC(=O)C2C=C(c3ccc(Br)cc3)NN=C2C1 (centres unmarked) [CBK021352] | 91.8 | – |
| Clc1ccc(CSCCn2cccc2)cc1 [CBK021366] | 92 | – |
| Nc1nnc(CSc2cccc3cccnc23)o1 [CBK021397] | 108 | – |
| N#Cc1nc(=O)[nH]cc1N [CBK021411] | 90.8 | – |
| C1=CC2N=C(SCc3ccccc3)OC2C=C1 (centres unmarked) [CBK021412] | 92.6 | – |
| Cc1csc(NS(=O)(=O)CC(C)C)n1 [CBK021434] | 89.1 | – |

| SMILES | viability at 28.5 h, 10 µM [%] | viability at 28.5 h, 10 µM (bulk resorufin, single well) [%] |
| --- | --- | --- |
| COc1ccccc1C1OC(=O)C[C@@H]1C(=O)Nc1cc(C(C)(C)C)on1 (some centres unmarked) [CBK021439] | 110 | – |
| CC(C)=NNC(=N)Nc1ccccc1 [CBK021452] | 90.4 | – |
| CCSC(C)CC1C/C(=N/O)c2c(C)noc2C1 (centres unmarked) [CBK021455] | 88.4 | – |
| Brc1ccc(CN2CCN3CCCC3C2C2CCCCC2)o1 (centres unmarked) [CBK021456] | 82.6 | – |
| CN(C)c1oc(-c2ccccc2)nc1S(=O)(=O)c1ccccc1 [CBK021477] | 105 | – |
| O=C(Cc1ccccc1)N/N=C/C1CC2CC1CC2C(F)(F)F (centres unmarked) [CBK021488] | 93 | – |
| O=C(O)c1snnc1-c1ccccc1 [CBK021545] | 90.9 | – |
| O=S1(=O)CCC(Sc2nncc3ccccc23)C1 (centres unmarked) [CBK021586] | 92.2 | – |
| CC1=NNC(=S)NC(C)(C)C1 [CBK021597] | 120 | – |
| Cc1c(C#N)c(=O)ncn1Cc1ccncc1 [CBK021603] | 102 | – |
| O=C(C/C=N/OCc1ccccc1)c1sccc1Cl [CBK021611] | 96 | – |
| O=C1N(C2CCCCC2)CC2C(c3ccccc3)ONC12O (centres unmarked) [CBK021700] | 97 | – |
| c1ccc(SCCCSc2ccccn2)cc1 [CBK021704] | 87 | – |
| CCCCCSc1c(C#N)nc(N2CCOCC2)c2c1CC(C)(C)OC2 [CBK021748] | 92.1 | – |
| OC1CCN(c2ccc(-c3ccccc3)nn2)CC1 [CBK021753] | 83.9 | – |
| O=C(c1ccccc1)n1c(=S)nc2n(c1=S)CCN2 [CBK021794] | 84.3 | – |
| O=C1CC(C(=O)O)CN(c2cccs2)C1 (centres unmarked) [CBK021796] | 92.8 | – |
| NC1(C(F)(F)F)Oc2cc(Cl)c(Cl)cc2O1 [CBK021805] | 88.5 | – |
| O=C(O)c1ccc2c(c1)C(=O)N(C1=NCCS1)C2=O [CBK021809] | 89.6 | – |
| CSc1nc(C#N)c(N)c(SC2C=CCCC2)n1 (centres unmarked) [CBK021817] | 89.4 | – |
| c1cn(CC2(Cn3ccnc3)COC2)cn1 [CBK021839] | 108 | – |
| CC(=O)Nc1ccc(/C(C)=N/Nc2nc(N3CCCC3)nc(N3CCCC3)n2)cc1 [CBK021877] | 89.3 | – |
| CC(=O)O/C(N)=N/c1nonc1N [CBK021885] | 105 | – |
| c1csc(C2NN=C3C4CCN(CC4)C32)c1 (centres unmarked) [CBK021915] | 91.5 | – |
| COC(=O)c1sccc1N1C(=O)CSCC1=O [CBK021934] | 103 | – |
| CNC(=O)C(NC(=S)NC(=O)c1ccc(F)cc1)C(C)(C)C (centres unmarked) [CBK021945] | 109 | – |

| SMILES | viability at 28.5 h, 10 µM [%] | viability at 28.5 h, 10 µM (bulk resorufin, single well) [%] |
| --- | --- | --- |
| C/C(=N\Nc1cccc2cccnc12)C(C)(C)C [CBK021957] | 113 | – |
| CCSc1nn(CC)c2oc3c(c2c1=S)CC(C)(C)OC3 [CBK021960] | 105 | – |
| CC1(C)[C@H]2CC[C@]1(C)[C@@H](OCCNc1ccccc1)C2 [CBK021967] | 87.8 | – |
| FC(F)(F)c1ccc(-c2nnc(C3CC3)o2)cc1 [CBK021992] | 86.7 | – |
| O=S(=O)(CCOc1ccccc1)N(CCOc1ccccc1)C1CCCCC1 [CBK022003] | 103 | – |
| CC(=O)c1cc(CCCO)n(Cc2ccco2)c1C [CBK022013] | 115 | – |
| S=c1[nH]nc(Cn2ccc(-c3ccccc3)n2)o1 [CBK022019] | 108 | – |
| COCCNc1cccc(Cn2c(=O)n(C)c3c2c(=O)nc(OC)n3C)c1 [CBK022052] | 84.3 | – |
| Nc1ncccc1OCCOc1cccnc1N [CBK022067] | 89.3 | – |
| CCCCN(CCCC)S(=O)(=O)c1nc2nc(C)cc(C)n2n1 [CBK022076] | 79.7 | – |
| CSc1nc2ncnc(N3CCC(O)CC3)c2s1 [CBK022082] | 84.4 | – |
| CC(=O)c1nnnn1C(C)(C)Cc1ccccc1 [CBK022088] | 91.3 | – |
| CCCC(=O)CCOC(=O)C1=C(C)OC2C1Nc1cc(F)c(F)cc1N2CC (centres unmarked) [CBK022099] | 93.4 | – |
| O=C(N/N=C/c1ccc[nH]1)C1CC1c1ccccc1 (centres unmarked) [CBK022120] | 98.8 | – |
| CCOC(=O)c1cnc(O/N=C(\N)c2ccc(C(C)(C)C)cc2)nc1C(F)(F)F [CBK022142] | 103 | – |
| Cc1nc(NC(CC(C)C)C(=O)O)c2nc(C)oc2n1 (centres unmarked) [CBK022157] | 115 | – |
| Cc1ccc(CCP(=O)(O)CN2CCOCC2)cn1 [CBK022176] | 109 | – |
| Cc1cccc(NC(=S)N/N=C/c2sccc2C)c1 [CBK022228] | 104 | – |
| C/C(=N\NC(=O)CC1(C)OCCO1)c1oc(C)cc1C [CBK022234] | 99.1 | – |
| CC(Oc1cccc(Cl)c1)n1cnnc1 (centres unmarked) [CBK022246] | 100 | – |
| Cc1nn(Cc2cccc(C(N)=O)c2)c(C)c1Br [CBK022255] | 86.9 | – |
| CCOc1oc2cc(O)ccc2c1C(=O)CSC1CCCCC1 [CBK022262] | 87.1 | – |
| COc1cccc(C(=O)NCC(C)(C)SCc2ccc(F)cc2)c1 [CBK022322] | 111 | – |
| Brc1n[nH]c2nc(NCc3ccco3)ncc12 [CBK022327] | 91.6 | – |
| Cc1ccc2oc(=O)cc(N/N=C(\Cl)C(N)=S)c2c1 [CBK022357] | 85.8 | – |
| O=C(CC1(C(F)(F)F)NCCN1)c1ccco1 [CBK022373] | 82.6 | – |

| SMILES | viability at 28.5 h, 10 µM [%] | viability at 28.5 h, 10 µM (bulk resorufin, single well) [%] |
| --- | --- | --- |
| CCOC(=O)CN/C(=N/O)c1c(Cl)cccc1Cl [CBK022374] | 99.6 | – |
| CN(C)S(=O)(=O)NCCc1ccc(S(N)(=O)=O)cc1 [CBK022388] | 99.5 | – |
| Cc1ccc2c(c1)C(C)(c1ccccc1)CC(C)(C)N2C(=O)CSc1nncn1C (centres unmarked) [CBK022397] | 98.8 | – |
| COc1ccc2ccccc2c1[S+]([O-])NC1CCCCC1 (centres unmarked) [CBK022400] | 80.7 | – |
| C=CCn1c(SCC(=O)Nc2ccccn2)nnc1-c1ccc(Br)cc1 [CBK022413] | 96.3 | – |
| COc1cccc(C(=O)Nc2ccc(Br)cc2C(=O)O)c1 [CBK022487] | 98.7 | – |
| Clc1cncc(N2CCNCC2)c1 [CBK022556F] | – | 117 |
| CS(=O)(=O)N1CC2(CCN(C(=O)[C@@H]3CNC[C@H]3c3ccccc3)CC2)c2ccccc21 [CBK022572] | 104 | – |
| c1ccc(OCCOc2ccc(N3CCNCC3)nn2)cc1 [CBK022577F] | 109 | – |
| c1ccc2c(c1)NCC21CCNCC1 [CBK022583] | 101 | – |
| O=C1OC[C@@H](c2ccccc2)N1C(=O)[C@@H]1CN(Cc2ccccc2)C[C@H]1c1cc2ccccc2o1 [CBK022599C] | 111 | – |
| CN(C)c1ccccc1C1(O)CN2CCC1CC2 (centres unmarked) [CBK022620] | 86.8 | – |
| CC(C)CN1CC2(CCN(C(=O)OCc3ccccc3)CC2)c2ccccc21 [CBK022626C] | 106 | – |
| O=C(OCc1ccccc1)N1CCC2(CC1)CN(CCO)c1ccccc12 [CBK022627] | 105 | – |
| CCN(CC)C(=O)c1ccc(N)cc1C [CBK022686C] | 93.5 | – |
| CC1=CC(=O)OC1(O)c1ccc(Br)cc1 (centres unmarked) [CBK022687] | 91.6 | – |
| O=C(O)C(CCCN1CCCC1)(c1ccccc1)c1ccccc1 [CBK022695G] | 81.7 | – |
| C[N+]1(CC(=O)c2ccccc2)C2CCC1CC(OC(=O)C(O)c1ccccc1)C2 (centres unmarked) [CBK022712C] | 120 | – |
| CCCC/N=C(\NS(=O)(=O)c1ccc(C)cc1)OCC [CBK022731] | 106 | – |
| NC(=O)N/N=C/COc1cccc(C(F)(F)F)c1 [CBK022736] | 102 | – |
| CCN(CC)CCOc1cc(=O)oc2ccccc12 [CBK022747C] | 105 | – |
| Cc1ccnc(Nc2nc3ccccc3o2)n1 [CBK022772] | 87.5 | – |
| CO/N=C\c1c(CO)cnc(C)c1O [CBK022776] | 98.4 | – |

From PMC12040169 (PLOS Biology, 2025)
